Experimental data published in patent publication US9850283B2, “Macrocyclic inhibitors of the PD-1/PD-L1 and CD80(B7-1)/PD-L1 protein/protein interactions” (BRISTOL-MYERS SQUIBB COMPANY, priority 2013, dated 2017).
Where two headings read alike, the source gives them in different places. Positions of bridges follow the written chain, without caps; N, C: chain ends. Non-standard residues stand in square brackets, D forms with d. Residues, ends and D or L forms follow the SMILES beside them. ξ: configuration not given here. *: point of attachment. pY = N[C@@H](Cc1ccc(OP(=O)(O)O)cc1)C(=O)O; Phe(4-Cl) = N[C@@H](Cc1ccc(Cl)cc1)C(=O)O; Bta = N[C@@H](Cc1csc2ccccc12)C(=O)O; Hyp = O=C(O)[C@@H]1C[C@@H](O)CN1; NMeF = CN[C@@H](Cc1ccccc1)C(=O)O; NMeNle = CCCC[C@H](NC)C(=O)O; NMeM = CN[C@@H](CCSC)C(=O)O; NMeS = CN[C@@H](CO)C(=O)O; NMeA = CN[C@@H](C)C(=O)O; Orn = NCCC[C@H](N)C(=O)O; Dab = NCC[C@H](N)C(=O)O; dAze = O=C(O)[C@H]1CCN1; Bn = c1ccc(C*)cc1; ξC = NC(CS)C(=O)O; Sar = CNCC(=O)O

Assays:
[1] = biological target: T1, Human PD-L1/PD-1 (Homo sapiens, UniProt Q9NZQ7); assay: HTRF PD-1-Ig/PD-L1-His binding assay (human PD-L1); settings: cluster symbol
T1 construct: made in house; host or cells: HEK293T
T1 sequence (Q9NZQ7 with tags, fused parts or gaps): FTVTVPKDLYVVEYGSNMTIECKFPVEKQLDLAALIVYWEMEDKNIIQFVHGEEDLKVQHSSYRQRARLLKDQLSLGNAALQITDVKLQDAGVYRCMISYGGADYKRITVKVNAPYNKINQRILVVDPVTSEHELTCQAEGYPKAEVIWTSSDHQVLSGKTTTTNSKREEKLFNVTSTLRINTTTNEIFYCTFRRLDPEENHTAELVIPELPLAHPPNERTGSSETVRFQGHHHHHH
Procedure, shortened: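 The time-resolved fluorescence signal comes from Eu-cryptate anti-Ig (1 nM) and APC anti-His (20 nM) antibodies bound to a PD-1-Ig/PD-L1-His complex. Both partners lack transmembrane regions.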

[2] = biological target: T2, LK35.2-hPD-L1 cells / PE-labeled PD-1-Ig (Homo sapiens, UniProt Q9NZQ7); assay: LK35.2-hPD-L1 cell binding high-content screening assay; format: cell-based; settings: cluster symbol
T2 construct: expressed in transfected cells; host or cells: LK35.2 mouse B cell line
T2 sequence (Q9NZQ7 19-290): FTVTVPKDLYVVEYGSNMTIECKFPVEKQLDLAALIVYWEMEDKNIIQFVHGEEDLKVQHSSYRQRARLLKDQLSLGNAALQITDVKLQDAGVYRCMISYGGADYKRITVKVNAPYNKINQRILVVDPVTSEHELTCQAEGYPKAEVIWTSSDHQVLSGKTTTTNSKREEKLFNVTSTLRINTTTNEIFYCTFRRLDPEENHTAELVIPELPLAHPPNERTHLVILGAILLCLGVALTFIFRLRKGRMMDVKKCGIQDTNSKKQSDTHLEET
Procedure, shortened: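 Using overnight-cultured LK35.2-hPD-L1 mouse B cells, compound was co-incubated with phycoerythrin-tagged human PD-1-Ig (final 1 nM) at 37 °C for one hour. Unbound label was removed by triple dPBS washing prior to high-content image acquisition and analysis.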

[3] = cell binding assay, cell line not given, read-out: CBA IC50 cluster
[4] = cell line of CBA not given (LK35.2-hPD-L1 or 293T-hPD-L1), read-out: CBA IC50 cluster

Row | IC50 ([1]; read-out: HTRF IC50 cluster) [nM] | IC50 [2, 3] [nM] | IC50 [2, 4] [nM] | Compound | IC50 ([1]; HTRF IC50 cluster) [nM] | IC50 ([2]; CBA IC50 cluster, cell line of CBA not given (LK35.2-hPD-L1 or 293T-hPD-L1)) [nM]
1 | – | – | – | CCCC[C@H]1C(=O)N(C)CC(=O)N[C@@H](CC(=O)O)C(=O)N[C@@H](C(C)C)C(=O)N(C)[C@@H](Cc2ccccc2)C(=O)N[C@@H](Cc2ccc(O)cc2)C(=O)N(C)CC(=O)N[C@@H](Cc2c[nH]c3ccccc23)C(=O)N[C@@H](Cc2ccc(O)cc2)C(=O)N[C@@H](CC(C)C)C(=O)N[C@H](C(=O)NCC(N)=O)CSCC(=O)N[C@@H](Cc2ccc(OP(=O)(O)O)cc2)C(=O)N(C)[C@@H](Cc2ccccc2)C(=O)N1C [Example 3066] ({CH2CO}-[pY][NMeF][NMeNle][Sar]DV[NMeF]Y[Sar]WYLCG-NH2; thioether N-13) | > 30.5 | > 74.3
2 | 0.385 to 6.74 | 4.78 to 72.9 | – | CCCC[C@H]1C(=O)N(C)[C@@H](CCSC)C(=O)N[C@@H](CCCNC(=N)N)C(=O)NC(C(=O)NCC(N)=O)CSCC(=O)N[C@@H](Cc2ccc(O)cc2)C(=O)N(C)[C@@H](C)C(=O)N[C@@H](CC(N)=O)C(=O)N2CCC[C@H]2C(=O)N[C@@H](Cc2cnc[nH]2)C(=O)N[C@@H](CO)C(=O)N2CCC[C@H]2C(=O)N[C@@H](Cc2c[nH]c3ccccc23)C(=O)N[C@@H](CO)C(=O)N[C@@H](Cc2csc3ccccc23)C(=O)N1C (stereo partly shown) [Example 9106] ({CH2CO}-Y[NMeA]NPHSPWS[Bta][NMeNle][NMeM]R[ξC]G-NH2; thioether N-14) | – | –
3 | > 30.5 | > 74.3 | – | CCCC[C@H]1C(=O)N(C)CC(=O)N[C@@H](CC(=O)O)C(=O)N[C@@H](C(C)C)C(=O)N(C)[C@@H](Cc2ccccc2)C(=O)N[C@@H](Cc2ccc(O)cc2)C(=O)N(C)CC(=O)N[C@@H](Cc2c[nH]c3ccccc23)C(=O)N(C)[C@@H](Cc2ccc(O)cc2)C(=O)N[C@@H](CC(C)C)C(=O)N[C@H](C(=O)NCC(N)=O)CSCC(=O)N[C@@H](Cc2ccccc2)C(=O)N(C)[C@@H](Cc2ccccc2)C(=O)N1C [Example 3566] (HELM PEPTIDE1{[O=C(C[*:3])[*:2]].F.[meF].[CCCC[C@@H](C(=O)[*:2])N(C)[*:1]].[Sar].D.V.[meF].Y.[Sar].W.[meY].L.C.G.[am]}$PEPTIDE1,PEPTIDE1,1:R3-14:R3$$$V2.0) | – | –
4 | 6.76 to 30.3 | – | 0.158 to 4.71 | CCCC[C@H]1C(=O)N(C)[C@@H](CCCC)C(=O)N[C@@H](CCCN)C(=O)N[C@H](C(=O)NCC(N)=O)CSCC(=O)N[C@@H](Cc2ccc(O)cc2)C(=O)N(C)[C@@H](C)C(=O)N[C@@H](CC(N)=O)C(=O)N2CCC[C@H]2C(=O)N[C@@H](Cc2c[nH]cn2)C(=O)N[C@@H](CC(C)C)C(=O)N2C[C@H](O)C[C@H]2C(=O)N[C@@H](Cc2c[nH]c3ccccc23)C(=O)N[C@@H](CCN)C(=O)N[C@@H](Cc2c[nH]c3ccccc23)C(=O)N1C [Example 1157] ({CH2CO}-Y[NMeA]NPHL[Hyp]W[Dab]W[NMeNle][NMeNle][Orn]CG-NH2; thioether N-14) | – | –
5 | 0.385 to 6.74 | 4.78 to 72.9 | – | CCCC[C@H]1C(=O)N(C)CC(=O)N[C@@H](CC(=O)O)C(=O)N[C@@H](C(C)C)C(=O)N(C)[C@@H](Cc2ccccc2)C(=O)N[C@@H](Cc2ccc(O)cc2)C(=O)N(C)CC(=O)N[C@@H](Cc2c[nH]c3ccccc23)C(=O)N[C@@H](Cc2ccc(O)cc2)C(=O)N[C@@H](CCCNC(=N)N)C(=O)N[C@H](C(=O)NCC(N)=O)CSCC(=O)N[C@@H](Cc2ccccc2)C(=O)N(C)[C@@H](Cc2ccccc2)C(=O)N1C [Example 3508] (HELM PEPTIDE1{[O=C(C[*:3])[*:2]].F.[meF].[CCCC[C@@H](C(=O)[*:2])N(C)[*:1]].[Sar].D.V.[meF].Y.[Sar].W.Y.R.C.G.[am]}$PEPTIDE1,PEPTIDE1,1:R3-14:R3$$$V2.0) | – | –
6 | 6.76 to 30.3 | 4.78 to 72.9 | – | CCCC[C@H]1C(=O)N2CCC[C@@H]2C(=O)N[C@@H](CCCN)C(=O)N[C@H](C(=O)NCC(N)=O)CSCC(=O)N[C@@H](Cc2ccc(O)cc2)C(=O)N(C)[C@@H](C)C(=O)N[C@@H](CC(N)=O)C(=O)N2CCC[C@H]2C(=O)N[C@@H](Cc2cnc[nH]2)C(=O)N[C@@H](CC(C)C)C(=O)N2CCC[C@H]2C(=O)N[C@@H](Cc2c[nH]c3ccccc23)C(=O)N[C@@H](CO)C(=O)N[C@@H](Cc2c[nH]c3ccccc23)C(=O)N1C [Example 5011] (HELM PEPTIDE1{[O=C(C[*:3])[*:2]].Y.[meA].N.P.H.L.P.W.S.W.[CCCC[C@@H](C(=O)[*:2])N(C)[*:1]].[dP].[Orn].C.G.[am]}$PEPTIDE1,PEPTIDE1,1:R3-15:R3$$$V2.0) | – | –
7 | 6.76 to 30.3 | 4.78 to 72.9 | – | CC(C)C[C@@H]1NC(=O)[C@H](Cc2cnc[nH]2)NC(=O)[C@@H]2CCCN2C(=O)[C@H](CC(N)=O)NC(=O)[C@H](C)N(C)C(=O)[C@H](Cc2ccccc2)NC(=O)CSC[C@@H](C(=O)NCC(N)=O)NC(=O)[C@H](CCCNC(=N)N)NC(=O)[C@H](C)N(C)C(=O)[C@H](COCc2ccccc2)N(C)C(=O)[C@H](Cc2c[nH]c3ccccc23)NC(=O)[C@H](CO)NC(=O)[C@H](Cc2c[nH]c3ccccc23)NC(=O)CN(C)C1=O [Example 6012] ({CH2CO}-F[NMeA]NPHL[Sar]WSW[NMeS](Bn)[NMeA]RCG-NH2; thioether N-14) | – | –
8 | 6.76 to 30.3 | – | 4.78 to 72.9 | CCCC[C@H]1C(=O)N(C)CC(=O)N[C@@H](CC(=O)O)C(=O)N[C@@H](C(C)C)C(=O)N(C)[C@@H](Cc2ccccc2)C(=O)N[C@@H](Cc2ccc(O)cc2)C(=O)N(C)CC(=O)N[C@@H](Cc2csc3ccccc23)C(=O)N[C@@H](Cc2ccc(O)cc2)C(=O)N[C@@H](CC(C)C)C(=O)N[C@H](C(=O)NCC(N)=O)CSCC(=O)N[C@@H](Cc2ccc(Cl)cc2)C(=O)N(C)[C@@H](Cc2ccccc2)C(=O)N1C [Example 3115] ({CH2CO}-[Phe(4-Cl)][NMeF][NMeNle][Sar]DV[NMeF]Y[Sar][Bta]YLCG-NH2; thioether N-13) | – | –
9 | > 30.5 | – | > 74.3 | CC(C)C[C@@H]1NC(=O)[C@H](Cc2cnc[nH]2)NC(=O)[C@@H]2CCCN2C(=O)[C@H](CC(N)=O)NC(=O)[C@H](C)N(C)C(=O)[C@H](Cc2ccccc2)NC(=O)CSC[C@@H](C(=O)NCC(N)=O)NC(=O)[C@H](CCCNC(=N)N)NC(=O)[C@H](C)N(C)C(=O)[C@H](CCCc2ccccc2)NC(=O)[C@H](Cc2c[nH]c3ccccc23)NC(=O)[C@H](CO)NC(=O)[C@H](Cc2c[nH]c3ccccc23)NC(=O)CN(C)C1=O [Example 1108] (HELM PEPTIDE1{[O=C(C[*:3])[*:2]].F.[meA].N.P.H.L.[Sar].W.S.W.[O=C([C@H](CCCc1ccccc1)N[*:1])[*:2]].[meA].R.C.G.[am]}$PEPTIDE1,PEPTIDE1,1:R3-15:R3$$$V2.0) | – | –
10 | 6.76 to 30.3 | 4.78 to 72.9 | – | CCCC[C@H]1C(=O)N(C)[C@@H](CCCC)C(=O)N[C@@H](CO)C(=O)N[C@H](C(=O)NCC(N)=O)CSCC(=O)N[C@@H](Cc2ccc(O)cc2)C(=O)N(C)[C@@H](C)C(=O)N[C@@H](CC(N)=O)C(=O)N2CCC[C@H]2C(=O)N[C@@H](Cc2c[nH]cn2)C(=O)N[C@@H](CCC(N)=O)C(=O)N2C[C@H](O)C[C@H]2C(=O)N[C@@H](Cc2c[nH]c3ccccc23)C(=O)N[C@@H](CO)C(=O)N[C@@H](Cc2c[nH]c3ccccc23)C(=O)N1C [Example 5121] ({CH2CO}-Y[NMeA]NPHQ[Hyp]WSW[NMeNle][NMeNle]SCG-NH2; thioether N-14) | – | –
11 | 0.385 to 6.74 | – | 0.158 to 4.71 | CCCC[C@H]1C(=O)N(C)[C@@H](CCCC)C(=O)N[C@@H](CCN)C(=O)N[C@H](C(=O)NCC(N)=O)CSCC(=O)N[C@@H](Cc2ccc(O)cc2)C(=O)N(C)[C@@H](C)C(=O)N[C@@H](CC(N)=O)C(=O)N2CCC[C@H]2C(=O)N[C@@H](Cc2cnc[nH]2)C(=O)N[C@@H](CC(C)C)C(=O)N2C[C@H](O)C[C@H]2C(=O)N[C@@H](Cc2c[nH]c3ccccc23)C(=O)N[C@@H](CO)C(=O)N[C@@H](Cc2c[nH]c3ccccc23)C(=O)N1C [Example 1131] | – | –
12 | > 30.5 | > 74.3 | – | CCCC[C@H]1C(=O)N(C)[C@@H](CCCC)C(=O)N[C@@H](CCCNC(=N)N)C(=O)N[C@H](C(=O)NCC(N)=O)CSCC(=O)N[C@@H](Cc2ccccc2)C(=O)N(C)[C@@H](C)C(=O)N[C@@H]([C@@H](C)O)C(=O)N2CCC[C@H]2C(=O)N[C@@H](Cc2cnc[nH]2)C(=O)N[C@@H](CC(C)C)C(=O)N(C)CC(=O)N[C@@H](Cc2c[nH]c3ccccc23)C(=O)N[C@@H](CO)C(=O)N[C@@H](Cc2c[nH]c3ccccc23)C(=O)N1C [Example 5020] ({CH2CO}-F[NMeA]TPHL[Sar]WSW[NMeNle][NMeNle]RCG-NH2; thioether N-14) | – | –
13 | 0.385 to 6.74 | 0.158 to 4.71 | – | CCCC[C@H]1C(=O)N(C)CC(=O)N[C@@H](CC(=O)O)C(=O)N[C@@H](C(C)C)C(=O)N(C)[C@@H](Cc2ccccc2)C(=O)N[C@@H](Cc2ccc(O)cc2)C(=O)N2CC[C@@H]2C(=O)N[C@@H](Cc2c[nH]c3ccccc23)C(=O)N[C@@H](Cc2ccc(O)cc2)C(=O)N[C@@H](CC(C)C)C(=O)N[C@H](C(=O)NCC(N)=O)CSCC(=O)N[C@@H](Cc2ccccc2)C(=O)N(C)[C@@H](Cc2ccccc2)C(=O)N1C [Example 3577] ({CH2CO}-F[NMeF][NMeNle][Sar]DV[NMeF]Y[dAze]WYLCG-NH2; thioether N-13) | – | –
14 | 6.76 to 30.3 | 4.78 to 72.9 | – | CCCC[C@H]1C(=O)N(C)CC(=O)N[C@@H](CC(=O)O)C(=O)N[C@@H](C(C)C)C(=O)N(C)[C@@H](Cc2ccccc2)C(=O)N[C@@H](Cc2ccccc2)C(=O)N(C)CC(=O)N[C@@H](Cc2c[nH]c3ccccc23)C(=O)N[C@@H](Cc2ccc(O)cc2)C(=O)N[C@@H](CC(C)C)C(=O)N[C@H](C(=O)NCC(N)=O)CSCC(=O)N[C@@H](Cc2ccccc2)C(=O)N(C)[C@@H](Cc2ccccc2)C(=O)N1C [Example 3534] (HELM PEPTIDE1{[O=C(C[*:3])[*:2]].F.[meF].[CCCC[C@@H](C(=O)[*:2])N(C)[*:1]].[Sar].D.V.[meF].F.[Sar].W.Y.L.C.G.[am]}$PEPTIDE1,PEPTIDE1,1:R3-14:R3$$$V2.0) | – | –
